“Also recorded” adds a separate entry of the source.
Tests used:
Format in all cases: cell-based, human
[1] = tested on: mTOR; assay: Immunoblot of p-S6 and p-eIF4G in cell lysates (mTOR activity)
Procedure: (§1) (a) SN12C-CSCG and SN12C-VHLshRNA cell were treated with vehicle, 1 nM or 10 nM of CCI-779 and lysed 24 hours later. Lysates were subjected to immunoblotting for HIF-1α, HIF-2α, GLUT-1, CA-IX, p-eIF4G, p-S6 Ribosomal protein. Equal protein loading was verified using anti-β-actin antibody. (b) HIF-1α expression was probed by immunoblotting in SN12C-MSCV-5′TOP-HIF-1α cDNA (left panel) and SN12C-MSCV-HIF-1α cDNA (tight panel) post 24 hours of vehicle, 1 nM or 10 nM of CCI-779.
FIGS. 4A-4C. Rescue of CCI-779 growth suppression by HIF-1-α and HIF-2-α prolyl hydcroxylase mutants. […] Cell growth was measured by cell counts (n=3). […]
(§2) Cells and xenograft tumors were lysed in ECB lysis buffer (see, e.g. Kondo et al., Cancer Cell 1, 237-46 (2002)) or high-detergent buffer (2% SDS), (see, e.g. Chen et al., Nat Med 10, 33-9 (2004)), respectively, supplemented with complete protease and phosphatase inhibitor cocktails (Calbiochem). […] Bound antibody was detected using enhanced chemiluminescence (ECL, Amersham). For VEGF ELISA quantification, cells were plated in 6 well plates (1×10^5 per well). […] Thirty-six hours later, VEGF ELISA (R&D Systems) was performed according to the manufacturer's instructions, using a Fisher Plate reader. […]

[2] = tested on: GLUT-1, CA-IX and VEGF; assay: Expression of HIF target genes GLUT-1, CA-IX and VEGF in VHL knockdown cells; details: 1 and 10 nM CCI-779
Procedure: as §1, §2
Cells and xenograft tumors were lysed in ECB lysis buffer or high-detergent buffer (2% SDS), respectively, supplemented with complete protease and phosphatase inhibitor cocktails (Calbiochem). […] Bound antibody was detected using enhanced chemiluminescence (ECL, Amersham). […]

[3] = tested on: HIF-1α; assay: Immunoblot of heterologously expressed HIF-1α cDNA with or without 5'TOP sequences; details: VHL wild-type SN12C cells, 1 or 10 nM CCI-779, 24 hours
Procedure: as §1
The pCSUVCG (U6-shRNA-VHL-CMV-GFP) was constructed by ligating the BamHI/EcoRI digests of pCSCG and the U6-shRNA-VHL PCR product (see, e.g. Chen, C. D. et al. Nat Med 10, 33-9 (2004)). The U6-shRNA-VHL PCR was performed using a hU6-containing plasmid at an annealing temperature of 60° C. with the primers 5′ abc 3′ and 5′ xyz 3′. […]
as §2, with “buffer” for “buffer (see, e.g. Kondo et al., Cancer Cell 1, 237-46 (2002))”, “SDS),” for “SDS), (see, e.g. Chen et al., Nat Med 10, 33-9 (2004)),”

Structure (SMILES): CO[C@H]1C[C@@H]2CC[C@@H](C)[C@@](O)(O2)C(=O)C(=O)N2CCCC[C@H]2C(=O)O[C@H]([C@H](C)C[C@@H]2CC[C@@H](OC(=O)C(C)(CO)CO)[C@H](OC)C2)CC(=O)[C@H](C)/C=C(\C)[C@@H](O)[C@@H](OC)C(=O)[C@H](C)C[C@H](C)/C=C/C=C/C=C/1C [CCI-779]
- phosphorylation of S6 and eIF4G ([1]; VHL knockdown cells expressing HIF-1α/HIF-2α mutants): decreased phosphorylation
- phosphorylation of S6 and eIF4G ([1]; parental and VHL knockdown cells, 1 and 10 nM CCI-779): reduced phosphorylation; also recorded: reduction in phosphorylation
- expression of GLUT-1, CA-IX and VEGF [2]: similarly reduced; also recorded: decrease in the expression
- HIF-1α protein levels, 5'TOP sequence removed [3]: largely unaffected
- HIF-1α protein levels, cDNA retaining the 5'TOP sequences [3]: reduction in HIF-1α protein levels; also recorded: decrease in HIF-1α protein levels
